The record followed here is patent US9303045B2, “5-HT3 receptor antagonists” (Takeda Pharmaceutical Company Limited, priority 2013, dated 2016).

The target in this assay is 5HT3a receptor expressed in HEK-293T cells (Homo sapiens (Human), UniProt P46098). The experiment in a line: Inhibition of Ca flux activity of 5HT3 in vitro assay. The following applies: calcium flux, 5HT 216 nM, approximate values. It counts as cell-based. The protocol:
Inhibition of Ca Flux Activity of 5HT3 In Vitro Assay
The 5HT3 antagonist activity of the compounds of the invention was determined by measuring the ability of the compounds to inhibit the calcium flux activity of […] receptor expressed in HEK-293T cells. HEK-293T cells were transfected with the 5HT3a expression construct using Xtreme Gene 9 (Roche) in 150 mm tissue culture treated plates and incubated for 24 hours at 37° C. Cells were then split and plated at a density of 60K cells/well in poly-lysine coated, black 96-well plates with clear bottoms (BD BioSciences) and incubated overnight at 37° C. Growth media was removed and cells loaded with 200 uL calcium indicator dye in HBSS containing 20 mM HEPES (Calcium 5 Assay kit, Molecular Devices) and incubated at 37° C. for 1 hour. While cells were incubating, the 10× antagonist and agonist/antagonist addition plates were made. For 10× antagonist plate: half log serial dilutions (final concentrations range from 10^−7 through 10^−10 with the bottom well a negative, no ligand control) were made from test compounds in DMSO at a 1000× concentration and then diluted to 10× in HBSS/20 mM HEPES. For addition plate: 5HT was diluted to 100× in HBSS/20 mM HEPES (final concentration in the assay—216 nM) and 15 uL was added to each well of the addition plate, 15 uL of 10× compound was also added to the addition plate, and finally 120 uL of HBSS/20 mM HEPES (for a total of 150 uL). Cells were then removed from the incubator and equilibrated to room temperature for 10 minutes, then 22.5 uL of 10× test compounds were added in triplicate to the plates and incubated at room temperature for 10 minutes (Tropisetron was used as a positive control in every assay). Test plate and addition plate were loaded into the FlexStation III (Molecular Devices), and using the fluidics, 22.5 uL compound additions were made (at t=˜17 seconds), and fluorescence was measured for 90 seconds, reading every 2.2 seconds. Data sets were analyzed as max minus min using Software Max Pro (Molecular Devices). IC50 curves were generated using non-linear regression in GraphPad Prism.
(Calcium assays in cells follow changes in intracellular calcium, usually with a dye or a luminescent sensor.)

Where only a bound is given, the exact number is not on record here.

5HT3a receptor expressed in HEK-293T cells, sequence (P46098 24-478): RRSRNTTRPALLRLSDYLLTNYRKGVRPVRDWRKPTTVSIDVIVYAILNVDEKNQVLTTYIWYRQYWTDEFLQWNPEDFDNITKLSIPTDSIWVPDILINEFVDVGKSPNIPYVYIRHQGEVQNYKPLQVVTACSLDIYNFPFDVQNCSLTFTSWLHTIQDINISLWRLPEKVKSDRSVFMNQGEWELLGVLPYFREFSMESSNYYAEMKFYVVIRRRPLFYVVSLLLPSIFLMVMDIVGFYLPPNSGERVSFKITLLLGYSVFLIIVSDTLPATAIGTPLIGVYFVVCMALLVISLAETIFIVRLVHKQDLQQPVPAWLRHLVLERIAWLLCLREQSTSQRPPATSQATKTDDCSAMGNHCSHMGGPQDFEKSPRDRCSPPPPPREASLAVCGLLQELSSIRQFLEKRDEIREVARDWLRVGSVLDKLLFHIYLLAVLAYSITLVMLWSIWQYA

As to `CC(C)S(=O)(=O)n1cc(C(=O)NC2C[C@H]3COC[C@@H](C2)N3C)c2ccccc21` (stereo partly shown), the IC50 – broadly, the concentration at which inhibition is half-maximal – was 0.57 nM. With `CN1[C@@H]2COC[C@H]1CC(NC(=O)c1cn(CC(F)(F)F)c3ccccc13)C2` (stereo partly shown) the figure was 0.68 nM; with `CC(C)S(=O)(=O)n1cc(C(=O)O[C@H]2C[C@H]3COC[C@@H](C2)N3)c2ccccc21`, 1.8 nM. Next, “5-fluoro-N-((1R,5S,7S)-9-methyl-d3-3-oxa-9-azabicyclo[3.3.1]nonan-7-yl)-1-(2,2,2-trifluoroethyl)-1H-pyrrolo[2,3-b]pyridine-3-carboxamide 2,2,2-trifluoroacetate [Example 18]”: 4.06 nM. `O=C(OC1C[C@H]2COC[C@@H](C1)N2)c1cn(CC(F)F)c2ccc(F)cc12` (stereo partly drawn) [Example 31, (1R,5S,7S)-3-oxa-9-azabicyclo[3.3.1]nonan-7-yl 1-(2,2-difluoroethyl)-5-fluoro-1H-indole-3-carboxylate, 2,2,2-trifluoroacetate]: the 50% inhibitory concentration (IC50) turned out to be 1.29 nM. Next, `CN1C2COCC1CC(NC(=O)c1cn(CC(F)(F)F)c3ccc(F)cc13)C2` [Example 35, 5-fluoro-N-((1R,5S,7S)-9-methyl-3-oxa-9-azabicyclo[3.3.1]nonan-7-yl)-1-(2,2,2-trifluoroethyl)-1H-indole-3-carboxylate, 2,2,2-trifluoroacetate]: 0.54 nM; `CN1[C@@H]2COC[C@H]1CC(NC(=O)c1cn(S(C)(=O)=O)c3ccc(F)cc13)C2` (stereo partly drawn) [Example 36, 5-fluoro-N-((1R,5S,7S)-9-methyl-3-oxa-9-azabicyclo[3.3.1]nonan-7-yl)-1-(methylsulfonyl)-1H-indole-3-carboxylate, 2,2,2-trifluoroacetate]: 0.5 nM; `CS(=O)(=O)n1cc(C(=O)OC23CCN(CC2)CC3)c2cc(F)ccc21` [Example 37, quinuclidin-4-yl 5-fluoro-1-(methylsulfonyl)-1H-indole-3-carboxylate, 2,2,2-trifluoroacetate]: above 1000 nM. With `O=C(NC1C[C@H]2COC[C@@H](C1)N2)c1cn(CC(F)(F)F)c2ncccc12` (stereo partly drawn) [Example 38, N-((1R,5S,7S)-3-oxa-9-azabicyclo[3.3.1]nonan-7-yl)-1-(2,2,2-trifluoroethyl)-1H-pyrrolo[2,3-b]pyridine-3-carboxamide, 2,2,2-trifluoroacetate] the figure was 1.82 nM; with `O=C(NC1C[C@H]2COC[C@@H](C1)N2)c1cn(CC(F)F)c2ncc(F)cc12` (stereo partly drawn) [Example 39, N-((1R,5S,7S)-3-oxa-9-azabicyclo[3.3.1]nonan-7-yl)-1-(2,2-difluoroethyl)-5-fluoro-1H-pyrrolo[2,3-b]pyridine-3-carboxamide, 2,2,2-trifluoroacetate], 24.1 nM; with `CN1C2CCC1CC(OC(=O)c1cn(CC(F)F)c3ccccc13)C2` [Example 40, (1R,3R,5S)-8-methyl-8-azabicyclo[3.2.1]octan-3-yl 1-(2,2-difluoroethyl)-1H-indole-3-carboxylate, 2,2,2-trifluoroacetate], 0.78 nM. In the case of `CN1[C@@H]2CC[C@H]1CC(OC(=O)c1cn(CC(F)(F)F)c3ncccc13)C2` (stereo partly drawn) [Example 41, (1R,3R,5S)-8-methyl-8-azabicyclo[3.2.1]octan-3-yl 1-(2,2,2-trifluoroethyl)-1H-pyrrolo[2,3-b]pyridine-3-carboxylate, 2,2,2-trifluoroacetate], the IC50 amounted to 5.56 nM. Regarding `CN1[C@@H]2CC[C@H]1CC(OC(=O)c1cn(C3CCOC3)c3ccccc13)C2` (stereo partly drawn) [Example 42, (1R,3R,5S)-8-methyl-8-azabicyclo[3.2.1]octan-3-yl 1-(tetrahydrofuran-3-yl)-1H-indole-3-carboxylate, 2,2,2-trifluoroacetate], the half-maximal inhibitory concentration (IC50) was 0.94 nM. Next, `CN1[C@@H]2CC[C@H]1CC(OC(=O)c1c(Cl)n(CC(F)F)c3ccccc13)C2` (stereo partly drawn) [Example 43, (1R,3R,5S)-8-methyl-8-azabicyclo[3.2.1]octan-3-yl 2-chloro-1-(2,2-difluoroethyl)-1H-indole-3-carboxylate, 2,2,2-trifluoroacetate]: 1.02 nM; `CN1[C@@H]2CC[C@H]1CC(OC(=O)c1c(Cl)n(CC(F)(F)F)c3ccccc13)C2` (stereo partly drawn) [Example 44, (1R,3R,5S)-8-methyl-8-azabicyclo[3.2.1]octan-3-yl 2-chloro-1-(2,2,2-trifluoroethyl)-1H-indole-3-carboxylate, 2,2,2-trifluoroacetate]: 1.87 nM; `O=C(OC1C[C@H]2CC[C@@H](C1)N2)c1cn(CC(F)F)c2ccccc12` (stereo partly drawn) [Example 45, (1R,3R,5S)-8-azabicyclo[3.2.1]octan-3-yl 1-(2,2-difluoroethyl)-1H-indole-3-carboxylate, 2,2,2-trifluoroacetate]: 3.09 nM.

Turning to `CN1[C@@H]2COC[C@H]1CC(OC(=O)c1cn(S(C)(=O)=O)c3ccccc13)C2` (stereo partly drawn) [Example 47, (1R,5S,7S)-9-methyl-3-oxa-9-azabicyclo[3.3.1]nonan-7-yl 1-(methylsulfonyl)-1H-indole-3-carboxylate, 2,2,2-trifluoroacetate], the half-inhibitory concentration (IC50) was 0.33 nM. Take `CN1[C@@H]2COC[C@H]1C[C@@H](OC(=O)c1cn(CC(F)F)c3ncccc13)C2` [Example 48, (1R,5S,7S)-9-methyl-3-oxa-9-azabicyclo[3.3.1]nonan-7-yl 1-(2,2-difluoroethyl)-1H-pyrrolo[2,3-b]pyridine-3-carboxylate]: the IC50 came out at 0.84 nM. With `CN1[C@@H]2COC[C@H]1CC(OC(=O)c1cn(CC(F)(F)F)c3ncccc13)C2` (stereo partly drawn) [Example 49, (1R,5S,7S)-9-methyl-3-oxa-9-azabicyclo[3.3.1]nonan-7-yl 1-(2,2,2-trifluoroethyl)-1H-pyrrolo[2,3-b]pyridine-3-carboxylate, 2,2,2-trifluoroacetate] the figure was 1.82 nM. On to `O=C(OC1C[C@H]2COC[C@@H](C1)N2CCF)c1cn(CC(F)(F)F)c2ccc(F)cc12` (stereo partly drawn) [Example 50, (1R,5S,7S)-9-(2-fluoroethyl)-3-oxa-9-azabicyclo[3.3.1]nonan-7-yl 5-fluoro-1-(2,2,2-trifluoroethyl)-1H-indole-3-carboxylate, 2,2,2-trifluoroacetate], for which the IC50 was found to be 13 nM. Next, `CN1[C@@H]2COC[C@H]1CC(NC(=O)c1cn(CC(F)(F)F)c3ncc(F)cc13)C2` (stereo partly drawn) [Example 52, 5-fluoro-N-((1R,5S,7S)-9-methyl-3-oxa-9-azabicyclo[3.3.1]-nonan-7-yl)-1-(2,2,2-trifluoroethyl)-1H-pyrrolo[2,3-b]pyridine-3-carboxamide, 2,2,2-trifluoroacetate]: 1.05 nM; `CN1[C@@H]2COC[C@H]1C[C@@H](NC(=O)c1cn(C(F)(F)C(F)F)c3ncc(F)cc13)C2` [Example 53, 5-fluoro-N-((1R,5S,7S)-9-methyl-3-oxa-9-azabicyclo[3.3.1]-nonan-7-yl)-1-(1,1,2,2-tetrafluoroethyl)-1H-pyrrolo[2,3-b]pyridine-3-carboxamide, 2,2,2-trifluoroacetate]: 1.05 nM.

On to `CC(C)S(=O)(=O)n1cc(C(=O)OC2C[C@H]3COC[C@@H](C2)N3)c2cc(F)ccc21` (stereo partly drawn) [Example 54, (1R,5S,7S)-3-oxa-9-azabicyclo[3.3.1]nonan-7-yl 5-fluoro-1-(isopropylsulfonyl)-1H-indole-3-carboxylate, 2,2,2-trifluoroacetate], for which the 50% inhibitory concentration (IC50) is 5.61 nM.

As to `CN1[C@@H]2CC[C@H]1CC(OC(=O)c1c(Cl)n(CCF)c3ccccc13)C2` (stereo partly drawn) [Example 55, (1R,3R,5S)-8-methyl-8-azabicyclo[3.2.1]octan-3-yl 2-chloro-1-(2-fluoroethyl)-1H-indole-3-carboxylate, 2,2,2-trifluoroacetate], the half-maximal inhibitory concentration (IC50) turned out to be 0.9 nM. With `CN1C2CCC1CC(OC(=O)c1nn(CCF)c3ccccc13)C2` [Example 57, (1R,3R,5S)-8-methyl-8-azabicyclo[3.2.1]octan-3-yl 1-(2-fluoroethyl)-1H-indazole-3-carboxylate, 2,2,2-trifluoroacetate] the figure was above 1000 nM; with `CN1[C@@H]2COC[C@H]1CC(OC(=O)c1cn(CC(F)F)c3ccc(F)cc13)C2` (stereo partly drawn) [Example 58, (1R,5S,7S)-9-methyl-3-oxa-9-azabicyclo[3.3.1]nonan-7-yl 1-(2,2-difluoroethyl)-5-fluoro-1H-indole-3-carboxylate, 2,2,2-trifluoroacetate], 0.24 nM; with `O=C(OC1CC2COCC(C1)N2)c1cn(CC(F)(F)F)c2ccc(F)cc12` [Example 59, (1R,5S,7S)-3-oxa-9-azabicyclo[3.3.1]nonan-7-yl 5-fluoro-1-(2,2,2-trifluoroethyl)-1H-indole-3-carboxylate, 2,2,2-trifluoroacetate], 2.36 nM. As for `CN1[C@@H]2CCC[C@H]1CC(OC(=O)c1cn(CC(F)F)c3ccc(F)cc13)C2` (stereo partly drawn) [Example 60, (1R,3R,5S)-9-methyl-9-azabicyclo[3.3.1]nonan-3-yl 1-(2,2-difluoroethyl)-5-fluoro-1H-indole-3-carboxylate, 2,2,2-trifluoroacetate], the IC50 amounted to 0.44 nM.
